Measurements as given in patent US4381303A, “1,4,9,10-Tetrahydro-pyrazolo [4,3-]pyrido[-3,2-b][1,4]diazepin-10-ones” (Dr. Karl Thomae GmbH, priority 1981, dated 1983).

Experiments:
[1] = test system: Sensitivity of the Mouse in the Hot Plate Test; assay: Activity against the sensitivity of the mouse in the hot plate test (CHEN and BECKMAN); assay type: in vivo, mouse (male Chbb:NMRI (SPF)-mice); settings: po, dose increasing time of reaction by 100%, hot plate 52° C., esophageal tube, 1% methyl cellulose, linear regression
Description: (§1) were tested with regard to analgesic activity in the rat, analgesic activity in the mouse, and acute toxicity in the mouse:
2. Activity against the Sensitivity of the Mouse in the Hot Plate Test
The test was performed according to the method described by CHEN and BECKMAN [Science, 113, 631 (1951)] in male Chbb:NMRI (SPF)-mice with an average weight of 20 grams.
The test substances were administered as trituration in 1% methyl cellulose (0.1 ml/10 gm of mouse) by means of an esophageal tube. Before treatment with the test substances, the animals were twice put on the hot plate at intervals of 30 to 120 minutes, whereby their individual times of reaction were measured. After treatment with a test substance, the times of reaction of the animals were again measured in intervals of 30 to 120 minutes.
From the average maximum increase of the time of reaction obtained after treatment with different doses, and after linear regression analysis according to LINDER, an ED100 dose was calculated. The ED100 dose is one which increased the time of reaction by 100%.

Acute toxicity in mice = assay type: in vivo; settings: in vivo, po; mouse, esophageal tube, 1% methyl cellulose; deaths within 14 days; LITCHFIELD and WILCOXON
Description: as §1
(§2) 3. Acute Toxicity in Mice
(§3) The acute toxicity was determined in Chbb:NMRI (SPF)-mice of both sexes, having an average body weight of 20 grams. The test compounds were administered as a trituration in 1% methyl cellulose (0.2 ml/10 gm of animal) by means of an esophageal tube. The calculation of the LD50 values was effected according to the method of LITCHFIELD and WILCOXON [J. Pharmacol. Exp. Ther., 96, 99 (1949)], based upon the percentage of animals which died within 14 days after administration of different doses.

[2] = test system: Pain of Inflammation on the Back Paw of the Rat; assay: Activity against the pain of inflammation on the back paw of the rat (RANDALL-SELITTO); assay type: in vivo, rat (male Chbb:THOM-rats); settings: po, 1.5 h, dose at which pain threshold rises by 50% vs controls, esophageal tube, 1% methyl cellulose, 90 minutes after phlogistic, 90 minutes before determination, linear regression
Description: as §1
1. Activity against the Pain of Inflammation on the Back Paw of the Rat
The activity against the pain caused by inflammation was tested according to the method of RANDALL-SELITTO [Arch. Int. Pharmacodyn., 111, 409 (1957)]. Male Chbb:THOM-rats having body weights of from 100 to 130 grams received a subplantar injection of 0.1 ml of a suspension of 1,12 g of dry yeast in 18.9 ml of a 5.5% glucose solution into a back paw.
At 90 minutes after injection of the phlogistic, that is, ninety minutes before determination of the pain threshold, the animals received various doses of the test substances as a trituration in 1% methyl cellulose (1 ml/100 gm of animal) through an esophageal tube. Control animals received corresponding volumes of the vehicle. The pain threshold was determined in the rat in terms of the grams of bearing pressure on a paw, based on the weight of the animal.
From the pain threshold, measured according to the various doses of the test substance, and with linear regression analysis according to LINDER [Statistische Methoden, 4th ed., pp. 148-162, Birkhauser, Basel, 1964] an ED50 was determined. The ED50 dose is one in which the pain threshold rises by 50%, as compared to the controls.

Chbb:NMRI (SPF)-mice = assay: Acute toxicity in mice; assay type: in vivo; settings: dose 1000 mg/kg (footnote * of Table 3), mouse, esophageal tube, within 14 days
Description: as §1, §2, §3

SMILES | ED100 [1] [mg/kg] | LD50 at 336 h (Acute toxicity in mice) [mg/kg] | ED50 [2] [mg/kg] | animals died after administration of this dose (Chbb:NMRI (SPF)-mice)
Cc1nn(C)c2c1Nc1ncccc1NC2=O [A, 1,3-dimethyl-1,4,9,10-tetrahydro-pyrazolo[4,3-e]pyrido[3,2-b][1,4]diazepin-10-one] | 15 | 152 | 26 | 
Cc1nn(C)c2c1Nc1ncccc1N(C)C2=O [B, 1,4,9,10-tetrahydro-1,3,9-trimethyl-pyrazolo[4,3-e]pyrido[3,2-b][1,4]diazepin-10-one] | 30 | 175 | 11 | 
CCN1C(=O)c2c(c(C)nn2C)Nc2ncccc21 [C, 1,3-dimethyl-9-ethyl-1,4,9,10-tetrahydro-pyrazolo[4,3-e]pyrido[3,2-b][1,4]diazepin-10-one] | 28 | 171 | 28 | 
Cc1nn(C)c2c1N(C)c1ncccc1N(C)C2=O [D, 1,4,9,10-tetrahydro-1,3,4,9-tetramethyl-pyrazolo[4,3-e]pyrido[3,2-b][1,4]diazepin-10-one] |  | 225 | 7.4 | 
CCN1C(=O)c2c(c(C)nn2C)N(C)c2ncccc21 [E, 9-ethyl-1,4,9,10-tetrahydro-1,3,4-trimethyl-pyrazolo[4,3-e]pyrido[3,2-b][1,4]diazepin-10-one] |  | 202 | 5.9 | 
CCCCN1C(=O)c2c(c(C)nn2C)Nc2ncccc21 [F, 9-(n-butyl)-1,3-dimethyl-1,4,9,10-tetrahydro-pyrazolo[4,3-e]pyrido[3,2-b][1,4]diazepin-10-one] | 87 | > 1000 | 139 | 1 out of 8
